Reference: PubChem BioAssay (NCI)
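Where inhibition never reached the appropriate level, the endpoint shown equals the highest concentration tested. Otherwise, values were interpolated linearly from a five-concentration, 48-hour dose response in 96-well plates. Definition used: TGI = concentration required for complete inhibition of growth.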

Legend:
Assay in all cases: inhibition of tumour cell growth, NCI panel, 48 h
786-0 renal = system: 786-0 renal
A498 renal = system: A498 renal
A549 NSCLC = system: A549 NSCLC
ACHN renal = system: ACHN renal
BT-549 breast = system: BT-549 breast
CAKI-1 renal = system: CAKI-1 renal
CCRF-CEM leukemia = system: CCRF-CEM leukemia
COLO 205 colon = system: COLO 205 colon
DU-145 prostate = system: DU-145 prostate
EKVX NSCLC = system: EKVX NSCLC
HCC-2998 colon = system: HCC-2998 colon
HCT-116 colon = system: HCT-116 colon
HCT-15 colon = system: HCT-15 colon
HL-60(TB) leukemia = system: HL-60(TB) leukemia
HOP-62 NSCLC = system: HOP-62 NSCLC
HOP-92 NSCLC = system: HOP-92 NSCLC
HS 578T breast = system: HS 578T breast
HT29 colon = system: HT29 colon
IGROV1 ovarian = system: IGROV1 ovarian
KM12 colon = system: KM12 colon
LOX IMVI melanoma = system: LOX IMVI melanoma
M14 melanoma = system: M14 melanoma
MALME-3M melanoma = system: MALME-3M melanoma
MCF7 breast = system: MCF7 breast
MDA-MB-231 breast = system: MDA-MB-231 breast
MDA-MB-435 = system: MDA-MB-435
MDA-N = system: MDA-N
NCI-H226 lung = system: NCI-H226 lung
NCI-H23 lung = system: NCI-H23 lung
NCI-H460 lung = system: NCI-H460 lung
NCI-H522 lung = system: NCI-H522 lung
NCI/ADR-RES ovarian = system: NCI/ADR-RES ovarian
OVCAR-3 ovarian = system: OVCAR-3 ovarian
OVCAR-4 ovarian = system: OVCAR-4 ovarian
OVCAR-5 ovarian = system: OVCAR-5 ovarian
OVCAR-8 ovarian = system: OVCAR-8 ovarian
PC-3 prostate = system: PC-3 prostate
RXF 393 renal = system: RXF 393 renal
SF-268 CNS = system: SF-268 CNS
SF-295 CNS = system: SF-295 CNS
SF-539 CNS = system: SF-539 CNS
SK-MEL-2 melanoma = system: SK-MEL-2 melanoma
SK-MEL-28 melanoma = system: SK-MEL-28 melanoma
SK-MEL-5 melanoma = system: SK-MEL-5 melanoma
SK-OV-3 ovarian = system: SK-OV-3 ovarian
SN12C renal = system: SN12C renal
SNB-19 CNS = system: SNB-19 CNS
SNB-75 CNS = system: SNB-75 CNS
SW-620 colon = system: SW-620 colon
T-47D breast = system: T-47D breast
TK-10 renal = system: TK-10 renal
U251 CNS = system: U251 CNS
UACC-257 melanoma = system: UACC-257 melanoma
UACC-62 melanoma = system: UACC-62 melanoma
UO-31 renal = system: UO-31 renal
K-562 leukemia = system: K-562 leukemia
MOLT-4 leukemia = system: MOLT-4 leukemia
RPMI-8226 leukemia = system: RPMI-8226 leukemia
SR leukemia = system: SR leukemia

SMILES: OC(CCN1CCN(CCOC(c2ccccc2)c2ccccc2)CC1)c1ccc(Br)cc1 (stereo not given)
- TGI (786-0 renal): 22.8 µM
- TGI (A498 renal): 22 µM
- TGI (A549 NSCLC): 30.5 µM
- TGI (ACHN renal): 22.9 µM
- TGI (BT-549 breast): 26.1 µM
- TGI (CAKI-1 renal): 26.9 µM
- TGI (CCRF-CEM leukemia): 45.3 µM
- TGI (COLO 205 colon): 3.38 µM
- TGI (DU-145 prostate): 32.4 µM
- TGI (EKVX NSCLC): 23.5 µM
- TGI (HCC-2998 colon): 3.96 µM
- TGI (HCT-116 colon): 23.3 µM
- TGI (HCT-15 colon): 19.3 µM
- TGI (HL-60(TB) leukemia): 28.8 µM
- TGI (HOP-62 NSCLC): 32 µM
- TGI (HOP-92 NSCLC): 25.1 µM
- TGI (HS 578T breast): 42.8 µM
- TGI (HT29 colon): 16.5 µM
- TGI (IGROV1 ovarian): 24.7 µM
- TGI (KM12 colon): 36.9 µM
- TGI (LOX IMVI melanoma): 23.5 µM
- TGI (M14 melanoma): 11.2 µM
- TGI (MALME-3M melanoma): 24.4 µM
- TGI (MCF7 breast): 31.8 µM
- TGI (MDA-MB-231 breast): 25.3 µM
- TGI (MDA-MB-435): 27 µM
- TGI (MDA-N): 22.9 µM
- TGI (NCI-H226 lung): 37.6 µM
- TGI (NCI-H23 lung): 28 µM
- TGI (NCI-H460 lung): 26 µM
- TGI (NCI-H522 lung): 29.4 µM
- TGI (NCI/ADR-RES ovarian): 21.9 µM
- TGI (OVCAR-3 ovarian): 28 µM
- TGI (OVCAR-4 ovarian): 38.6 µM
- TGI (OVCAR-5 ovarian): 28.3 µM
- TGI (OVCAR-8 ovarian): 19.9 µM
- TGI (PC-3 prostate): 23 µM
- TGI (RXF 393 renal): 22.9 µM
- TGI (SF-268 CNS): 30.3 µM
- TGI (SF-295 CNS): 29.8 µM
- TGI (SF-539 CNS): 27.6 µM
- TGI (SK-MEL-2 melanoma): 25.6 µM
- TGI (SK-MEL-28 melanoma): 22.8 µM
- TGI (SK-MEL-5 melanoma): 12.6 µM
- TGI (SK-OV-3 ovarian): 27 µM
- TGI (SN12C renal): 25.2 µM
- TGI (SNB-19 CNS): 30.3 µM
- TGI (SNB-75 CNS): 27.5 µM
- TGI (SW-620 colon): 44.5 µM
- TGI (T-47D breast): 33.4 µM
- TGI (TK-10 renal): 26.9 µM
- TGI (U251 CNS): 25.1 µM
- TGI (UACC-257 melanoma): 12.6 µM
- TGI (UACC-62 melanoma): 22.8 µM
- TGI (UO-31 renal): 4.77 µM

SMILES: O=C1c2ccccc2C(=O)N1C1(C(=O)NC2(C(=O)O)CCCC2)CCCC1
- TGI (786-0 renal): > 100 µM
- TGI (A498 renal): > 100 µM
- TGI (A549 NSCLC): > 100 µM
- TGI (ACHN renal): > 100 µM
- TGI (BT-549 breast): > 100 µM
- TGI (CAKI-1 renal): > 100 µM
- TGI (CCRF-CEM leukemia): > 100 µM
- TGI (COLO 205 colon): > 100 µM
- TGI (DU-145 prostate): > 100 µM
- TGI (EKVX NSCLC): > 100 µM
- TGI (HCC-2998 colon): > 100 µM
- TGI (HCT-116 colon): > 100 µM
- TGI (HCT-15 colon): > 100 µM
- TGI (HOP-62 NSCLC): > 100 µM
- TGI (HS 578T breast): > 100 µM
- TGI (HT29 colon): > 100 µM
- TGI (IGROV1 ovarian): > 100 µM
- TGI (K-562 leukemia): > 100 µM
- TGI (KM12 colon): > 100 µM
- TGI (LOX IMVI melanoma): > 100 µM
- TGI (M14 melanoma): > 100 µM
- TGI (MALME-3M melanoma): > 100 µM
- TGI (MCF7 breast): > 100 µM
- TGI (MDA-MB-231 breast): > 100 µM
- TGI (MDA-MB-435): > 100 µM
- TGI (MDA-N): > 100 µM
- TGI (MOLT-4 leukemia): > 100 µM
- TGI (NCI-H226 lung): > 100 µM
- TGI (NCI-H23 lung): > 100 µM
- TGI (NCI-H522 lung): > 100 µM
- TGI (NCI/ADR-RES ovarian): > 100 µM
- TGI (OVCAR-3 ovarian): > 100 µM
- TGI (OVCAR-4 ovarian): > 100 µM
- TGI (OVCAR-5 ovarian): > 100 µM
- TGI (OVCAR-8 ovarian): > 100 µM
- TGI (PC-3 prostate): > 100 µM
- TGI (RPMI-8226 leukemia): > 100 µM
- TGI (RXF 393 renal): > 100 µM
- TGI (SF-268 CNS): > 100 µM
- TGI (SF-295 CNS): > 100 µM
- TGI (SK-MEL-2 melanoma): > 100 µM
- TGI (SK-MEL-28 melanoma): > 100 µM
- TGI (SK-MEL-5 melanoma): > 100 µM
- TGI (SK-OV-3 ovarian): > 100 µM
- TGI (SN12C renal): > 100 µM
- TGI (SNB-19 CNS): > 100 µM
- TGI (SNB-75 CNS): > 100 µM
- TGI (SR leukemia): > 100 µM
- TGI (SW-620 colon): > 100 µM
- TGI (T-47D breast): > 100 µM
- TGI (TK-10 renal): > 100 µM
- TGI (U251 CNS): > 100 µM
- TGI (UACC-257 melanoma): > 100 µM
- TGI (UACC-62 melanoma): > 100 µM
- TGI (UO-31 renal): > 100 µM
